Active and inactive are the calls of the source. No cut-off for these calls is given here.
Experiments:
[1] = system: A549; test: Cytotoxicity against human A549 cells after 72 hrs by alamar blue assay; format: functional, cell-based; details: A549, 72 h
[2] = system: Nucleic Acid; test: Induction of DNA cleavage of supercoiled phiX174 plasmid DNA assessed as relaxed DNA at 100 uM after 16 hrs by gel electrophoresis; format: nucleic-acid assay; details: Enterobacteria phage phiX174
[3] = biological target: Albumin (Bos taurus, UniProt P02769); test: Induction of cleavage of bovine serum albumin at 500 uM after 16 hrs using Coomassie blue by SDS-PAGE; details: cattle
[4] = Thermal stability of the compound assessed as half life at 110 degC; format: physicochemical

Chain of Albumin (P02769 whole entry): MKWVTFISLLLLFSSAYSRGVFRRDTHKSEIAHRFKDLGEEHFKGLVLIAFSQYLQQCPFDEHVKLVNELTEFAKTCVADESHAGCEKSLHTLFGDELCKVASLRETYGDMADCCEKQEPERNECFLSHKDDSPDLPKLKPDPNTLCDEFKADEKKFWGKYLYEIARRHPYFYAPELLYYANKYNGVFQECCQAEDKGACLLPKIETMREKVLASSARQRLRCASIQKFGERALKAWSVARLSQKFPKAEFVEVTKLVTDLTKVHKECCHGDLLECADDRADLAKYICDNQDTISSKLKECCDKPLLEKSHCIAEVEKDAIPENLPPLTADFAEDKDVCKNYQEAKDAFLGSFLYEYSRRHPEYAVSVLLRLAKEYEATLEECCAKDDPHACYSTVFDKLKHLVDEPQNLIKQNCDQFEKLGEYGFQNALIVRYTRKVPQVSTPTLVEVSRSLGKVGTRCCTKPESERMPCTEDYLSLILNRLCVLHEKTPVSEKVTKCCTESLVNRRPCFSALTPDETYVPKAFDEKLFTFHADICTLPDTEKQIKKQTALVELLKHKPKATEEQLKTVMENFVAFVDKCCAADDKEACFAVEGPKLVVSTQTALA

## C#Cc1nccn1C#Cc1ccccc1
[1]
  IC50: 5 µM

## C#Cn1ccnc1C#Cc1ccc(OC)cc1
[2]
  Activity: inactive
[1]
  IC50: 0.5 µM
[3]
  Activity: Not Active
[4]
  half-life: 17 h

## C#Cn1cc(-c2ccc(F)cc2)nc1C#CCCO
[1]
  IC50: 2.6 µM

## COc1ccc(C#Cc2nccn2C)cc1
[1]
  IC50: > 15 µM

## C#Cn1ccnc1C#Cc1ccc(C(C)=O)cc1
[1]
  IC50: 0.5 µM

## C#Cn1ccnc1C#Cc1ccc(C(C)(C)C)cc1
[1]
  IC50: 2.5 µM
[4]
  half-life: 16 h

## C(#Cn1ccnc1)c1ccccc1
[1]
  IC50: 9.2 µM

## C#Cn1ccnc1C#Cc1ccc(C(F)(F)F)cc1
[1]
  IC50: 6 µM

## C#Cn1cc(-c2ccccc2)nc1C#Cc1ccc(OC)cc1
[1]
  IC50: 2 µM

## C#Cn1ccnc1C#Cc1ccccc1
[1]
  IC50: 6 µM

## COc1ccc(C#Cc2nccn2/C=C\Sc2ccccc2)cc1
[1]
  IC50: 10.1 µM

## C(#Cn1ccnc1CCc1ccccc1)c1ccccc1
[1]
  IC50: > 15 µM

## C#Cc1nc(-c2ccc(F)cc2)cn1C#C
[2]
  Activity: inactive
[1]
  IC50: 2.6 µM
[3]
  Activity: Not Active

## C#Cc1nc(-c2ccccc2)cn1C#C
[1]
  IC50: 2.5 µM

## C#Cn1cnc(-c2ccccc2)c1
[1]
  IC50: 1.1 µM

## C#Cn1c(C#Cc2ccc(OC)cc2)nc2ccccc21
[1]
  IC50: 2.9 µM

## C#Cn1ccnc1C#CCOC
[1]
  IC50: 1 µM

## C#Cc1nc2ccccc2n1C#C
[1]
  IC50: 2 µM

## C#Cn1ccnc1C#Cc1ccc([N+](=O)[O-])cc1
[2]
  Activity: inactive
[1]
  IC50: 0.12 µM
[3]
  Activity: Not Active
[4]
  half-life: 32 h

## C#Cn1ccnc1C#Cc1cc(C(F)(F)F)cc(C(F)(F)F)c1
[1]
  IC50: 2.5 µM

## OCC#Cc1nccn1C#CCO
[1]
  IC50: 1.9 µM
